According to PubChem BioAssay AID179 (DTP/NCI, 2004):
Where “and” joins values, the source holds several entries; their conditions need not be identical. Equal entries are not always repeated. Calls of active or inactive are those of the source.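 How the source made its calls: active means compounds giving half or more protection of infected cells from virus-caused growth loss, again on retest; inactive means the rest.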 Where a SMILES comes first, the peptide text is derived from it.

System: CEM cells HIV-1 protection, formazan growth assay
Assay: NCI AIDS Antiviral Assay
Conditions: for IC50: measured here: growth of uninfected CEM cells
Summary of the method: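 Five concentrations of each compound were applied to infected and uninfected human CEM cells. Protection from HIV-1 was judged from growth measured with a soluble formazan assay.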

| Structure (SMILES) | EC50 | IC50 | outcome |
| --- | --- | --- | --- |
| S=c1sc2c(s1)SCc1cccc(n1)CSc1sc(=S)sc1SCc1cccc(n1)CS2 | > 200 µM | > 200 µM | – |
| CC(C)=CCC[C@@H](C)C1=C(O)C(N[C@H](C)c2ccccc2)=C(C)C(=O)C1=O | > 200 µM | 1.66 µM | – |
| N#CCCC(CCC#N)(CCC#N)NO | > 200 µM | > 200 µM | – |
| O=c1[nH]c(=O)n(C2CC(O)C(CO)O2)cc1NN=NCc1ccccc1 (stereo not given) | > 200 µM | > 200 µM | – |
| COc1ccc2cc(Oc3ccc(Cl)cc3)c(=O)oc2c1 | > 200 µM | > 200 µM | – |
| CC1OC(OCC2OC(Oc3c(-c4ccc(O)cc4)oc4cc(O)cc(O)c4c3=O)C(OC3OCC(O)(CO)C3O)C(O)C2O)C(O)C(O)C1O (stereo not given) | > 347 µM | > 347 µM | – |
| Nc1nc(Cl)cc(NCC2(O)CC2)n1 | > 200 µM | > 200 µM | – |
| O=C1CN(c2ccccc2)C(=O)CN1CCN1CC(=O)N(c2ccccc2)CC1=O | > 200 µM | > 200 µM | – |
| C#Cc1cc(CN(CC(=O)OC(C)(C)C)CC(=O)OC(C)(C)C)nc(CN(CC(=O)OC(C)(C)C)CC(=O)OC(C)(C)C)c1 | > 11.5 µM | 0.204 µM | – |
| CCOC(=O)/C(=C\n1c(=S)[nH]c2ccccc21)C(=O)c1ccccc1 | > 200 µM | > 200 µM | – |
| CC1(CC(=O)O)C(=O)CCCC1=O | – | – | inactive |
| CCC[CH2][Sn]([CH2]CCC)([O]C(=O)c1cccnc1SC)[O]C(=O)c1cccnc1SC | > 12.6 µM | 9.12 µM | – |
| Nc1onc2c1Cc1c(noc1N)-c1ccccc1-2 | > 200 µM | 166 µM | – |
| C[C@H](NS(=O)(=O)c1ccc(NC(=O)c2ccccc2)cc1)C(=O)O | – | – | inactive |
| CCc1noc2ccccc12 | > 339 µM | > 339 µM | – |
| CCSC1=N/C(=C\c2ccco2)C(Cl)=N1 | > 100 µM | > 100 µM | – |
| COc1ccc(S(=O)(=O)N[C@H](C(=O)O)c2ccccc2)cc1 | – | – | inactive |
| C=Cc1ccccc1N=NC(C(=O)OC)=P(c1ccccc1)(c1ccccc1)c1ccccc1 | > 1.17 µM | > 1.17 µM | – |
| CC1=NOC(=O)/C1=C/c1ccccc1O | > 178 µM | > 178 µM | – |
| COc1ccccc1/C=C/C(=O)C(C)(C)C | > 120 µM | 69.2 µM | – |
| O=C1C2C=CC1C1C3OC3C(=O)C21 (stereo not given) | > 708 µM | > 708 µM | – |
| Cn1cc(NC(=O)Nc2cc(C(=O)Nc3cc(C(=O)Nc4ccc(S(=O)(=O)O)c5cc(S(=O)(=O)O)cc(S(=O)(=O)O)c45)n(C)c3)n(C)c2)cc1C(=O)Nc1cc(C(=O)Nc2ccc(S(=O)(=O)O)c3cc(S(=O)(=O)O)cc(S(=O)(=O)O)c23)n(C)c1 | – | – | active |

| Structure (SMILES) | EC50 | IC50 | outcome |
| --- | --- | --- | --- |
| NNC(=O)CC(=O)N(C(=O)/C=C/c1ccccc1)c1ccc(Cl)cc1 | > 200 µM | > 200 µM | – |
| CC1OC(Oc2ccc3c(=O)c(-c4ccc(O)cc4)coc3c2)C(O)C(O)C1O (stereo not given) | > 200 µM | 93.3 µM | – |
| CC(O)CCCOC(c1ccccc1)(c1ccccc1)c1ccccc1 (stereo not given) | > 38.9 µM | > 38.9 µM | – |
| O=C(Nc1ccccc1C(=O)NCc1ccccc1)/C(=C/c1ccccc1O)NC(=O)c1ccccc1 | – | – | inactive |
| Cn1c(=Nc2ccccc2[N+](=O)[O-])sc2ccccc21 | > 200 µM | > 100 µM | – |
| CCC[CH2][Sn]([CH2]CCC)([CH2]CCC)[CH2]S(=O)(=O)O | – | – | inactive |
| COc1cccc(N/C(C)=C2/CCOC2=O)c1 | > 200 µM | 105 µM | – |
| O=C1CCCN1CO | > 200 µM | > 200 µM | – |
| COc1ccccc1NS(=O)(=O)c1ccc2ncn(NS(=O)(=O)c3ccc(Cl)cc3)c(=O)c2c1 | – | – | inactive |
| N[C@@H](C[S-])C(=O)O.O=[N+]([O-])O.[Ag+] | > 200 µM | 126 µM | – |
| COc1ccc(N2C(=O)CC(C3CC(C(C)(C)C)CCC3=O)C2=O)cc1 (stereo not given) | > 200 µM | > 200 µM | – |
| CC(C)(C)OC(=O)N(CCCCNC(=O)c1ccccc1)CCCNC(=O)c1ccccc1 | > 200 µM | 45.7 µM | – |
| CC(=O)OC1C(CCl)OC(N=[N+]=[N-])C(OC(C)=O)C1OC(C)=O (stereo not given) | – | – | inactive |
| O=C(NNC(=S)Nc1ccc(Br)cc1)c1cc(-c2ccccc2)nc2ccccc12 | > 200 µM | 9.77 µM | – |
| COc1ccc(S(=O)(=O)c2ccccc2[N+](=O)[O-])cc1 | – | – | active |
| CCCCCCCCCCCCCCCCCC(=O)OCC(COC1OC(CS(=O)(=O)O)C(O)C(O)C1O)OC(=O)CCCCCCCCCCCCCCCCC (stereo not given) | 11.7 µM and > 20.4 µM | 138 µM and > 20.4 µM | inactive |
| Cc1nnc(NS(=O)(=O)c2ccc(NC(=O)c3ccccc3SC(=O)CCCC[n+]3ccccc3)cc2)s1 | 51.3 µM | 55 µM | – |
| COc1cc(OC)cc(C(=O)CC(=O)c2cc(OC)cc(OC)c2)c1 | > 20.9 µM | 15.5 µM | – |
| COc1ccc(CNc2nc3ccc(C(F)(F)F)cc3nc2-c2ccccc2)cc1OC | > 12 µM | > 12 µM | – |
| O=C(O)CN(c1ccc(F)cc1)S(=O)(=O)c1ccccc1 | – | – | inactive |
| O=C1NC23CC=CCC12CCC3 (stereo not given) | > 1230 µM | > 1230 µM | – |
| CN(C)CCCN1C(=O)C2CCC(C)(C1=O)C2(C)C (stereo not given) | > 832 µM | 12.9 µM | – |

| Structure (SMILES) | EC50 | IC50 | outcome |
| --- | --- | --- | --- |
| O=C1[C@@H]2C3c4ccccc4C([C@@H]2C(=O)N1c1ccccc1)S3(=O)=O | – | – | inactive |
| CN1c2ccccc2C(=O)NC12CCN(CCCC(=O)c1ccc(F)cc1)CC2 | > 200 µM | > 100 µM | – |
| CC(=O)/C=C/c1ccco1 | > 26.3 µM | > 26.3 µM | – |
| CC(C)CC(NC(=O)C(Cc1ccc(O)cc1)NC(=O)C(CO)NC(=O)C(C)NC(=O)C(CCCN=C(N)N)NC(=O)C(CCC(=O)O)NC(=O)C(NC(=O)C(N)CCC(=O)O)C(C)C)C(=O)NC(CO)C(=O)NC(CCCCN)C(=O)O (stereo not given) (H-EVERASYLSK-OH; configuration not given here) | – | – | inactive |
| O=C1NC(=O)/C(=C/c2ccc(S(=O)(=O)N/N=C\C(O)C(O)C(O)C(O)CO)cc2)N1 (stereo not given) | > 200 µM | 126 µM and > 200 µM | – |
| CC1(C)C2CC1C(/C=N\OCC(=O)O)=CC2=O (stereo not given) | > 200 µM | > 200 µM | – |
| COc1cc2ccnc3c2c(c1OC)-c1coc(SC)c1-3 | – | – | inactive |
| Cn1cnnc1Sc1c([N+](=O)[O-])ncn1C | > 1050 µM | 9.12 µM | – |
| O=[N+]([O-])c1ccc(S(=O)(=O)N/N=C/c2ccccc2[N+](=O)[O-])cc1 | > 102 µM | > 102 µM | – |
| O=C1CCC2CCC1C2 (stereo not given) | > 200 µM | > 200 µM | – |
| CS/C1=C(\c2ccc(C)cc2)N(c2ccccc2)C(=O)C(=O)N(c2ccccc2)/C(c2ccc(C)cc2)=C(/SC)SS1 | > 200 µM | 47.9 µM | – |
| CN1C(=O)C=C(C=Nc2ccc(-c3ccccc3)cc2)C2CCCCC21 (stereo not given) | > 200 µM | 2.29 µM | – |
| COc1ccc(N2C(=O)c3cccnc3S2(=O)=O)cc1 | > 200 µM | > 200 µM | – |
| CCOC(=O)C1(C)C2=CC=C(O2)C(C)(C)C2=CC=C(O2)C(C)(C)C2=CC=C(O2)C(C)(C)C2=CC=C1O2 | – | – | inactive |
| CCc1cccc(CC)c1NC(=S)N/C=C(\C#N)C(=O)c1ccc2ccccc2c1 | – | – | inactive |
| S=C1NC2=S(N=C(Nc3ccccc3)N2c2ccccc2)S1 (stereo not given) | – | – | inactive |
| Brc1ccccc1/C=C\C1(c2ccccc2)OCCO1 | > 200 µM | 4.37 µM | – |
| COc1cc(/C=C(\C#N)C(=O)c2ccccc2)cc(OC)c1OC | > 16.2 µM | > 16.2 µM | – |
| CSc1nnc2n1-c1ccccc1SCC2 | > 1000 µM | 389 µM | – |
| CCCOC(C(=O)OC1CCC2CCC1N2C)(c1ccccc1)c1ccccc1 (stereo not given) | > 200 µM | 28.8 µM | – |
| CCCCS(=O)(=O)CCC(N)C(=O)O (stereo not given) | > 100 µM | > 100 µM | – |
| CSC1C(=O)Nc2ccc3ccccc3c21 (stereo not given) | > 200 µM | 10.2 µM | – |

| Structure (SMILES) | EC50 | IC50 | outcome |
| --- | --- | --- | --- |
| O=P(c1ccccc1)(c1ccccc1)c1ccc2c(c1)OCCOCCOCCOCCO2 | > 200 µM | > 200 µM | – |
| C[Si](C)(C)/C=C/CN1C(=O)CCC1O (stereo not given) | – | – | inactive |
| O=C(N=C1OC2C(OC(=O)c3ccccc3)C(COC(=O)c3ccccc3)OC2N1C(=O)c1ccccc1)c1ccccc1 (stereo not given) | > 200 µM | 107 µM | – |
| O=c1[nH]c(NCc2cccnc2)nc2nc[nH]c12 | > 200 µM | > 200 µM | – |
| Cn1c2ccccc2c(=O)c2c(O)cc3c(c21)C=CC1(CCCC1)O3 | 16.2 µM | > 200 µM | – |
| CC(NC(=O)C(N)CC(=O)O)C(=O)OC12CC3CC(CC(C3)C1)C2 (stereo not given) | > 200 µM | > 200 µM | – |
| Cc1cc([N+](=O)[O-])c(C)c2c1[nH]c1ccc(/C(CCC3CCCC3)=N\N)cc12 | > 10 µM | > 10 µM | – |
| Cc1ccccc1NC(=O)CC(=O)NNCC(=O)Nc1nnc(-c2ccccc2)s1 | > 61.7 µM | 46.8 µM | – |
| O=C1/C(=C/c2ccccc2)Oc2cc(O)ccc21 | > 200 µM | 110 µM | – |
| COc1ccc(/C=C2/C(=O)N(C(=O)c3ccccc3O)N=C2C)cc1 | > 56.2 µM | 0.0501 µM | – |
| CC1=CC(=O)N2CCN=C2S1 | > 200 µM | > 200 µM | – |
| Nc1ncnc2snnc12 | > 200 µM | > 200 µM | – |
| CC(=O)O/C=C\OC1CCCC1(c1ccccc1)c1ccccc1 (stereo not given) | > 200 µM | 1.38 µM | – |
| CN/N=C(\C)C(CN1CCCCC1)C(C1=C(O)c2ccccc2OC1)c1ccccc1 (stereo not given) | > 29.5 µM | > 29.5 µM | – |
| NC(=O)c1cnc2sc3ccccc3n2c1=O | > 200 µM | > 200 µM | – |
| CNS(=O)(=O)NNS(=O)(=O)c1ccc(OC)cc1 | > 617 µM | 324 µM | – |
| O=C(OCc1ccccc1)N1CCN(C(=O)OCc2ccccc2)CCN(C(=O)OCc2ccccc2)CCN(C(=O)OCc2ccccc2)CCN(C(=O)OCc2ccccc2)CC1 | > 100 µM | > 100 µM | – |
| Cc1ccccc1Nc1ccc([N+](=O)[O-])c2nonc12 | > 83.2 µM | 33.1 µM | – |
| CCOC(=O)C(=O)Nc1cc(Cl)ccc1Cl | > 363 µM | > 363 µM | – |
| CC(=O)O/C=C1/C[C@H]2[C@@H]3CCC4CC(C(C)=O)CC[C@]4(C)[C@H]3CC[C@]2(C)C1=O (stereo not given in full) | > 200 µM | 107 µM | – |
| Clc1ccccc1C(SCc1ccccc1)SCc1ccccc1 | > 200 µM | 195 µM | – |
| c1ccc2c(c1)C(=NCCCN1CCCCCCC1)c1cccn1-2 | > 200 µM | 47.9 µM | – |
